Test results: US9808003B2, “Herbicidally active 2-(substituted-phenyl)-cyclopentane-1,3-dione compounds and derivatives thereof” (Syngenta Limited, priority 2013, dated 2017)

Experiments:
Assay type in all cases: in vivo
[1] = tested on: Alopecurus myosuroides (ALOMY); assay: Test 1B glasshouse assay, post-emergence herbicidal activity against grassy weeds; details: 14 DAA
Outline: (§1)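 Post-emergence spray, 14-day-old plants, glasshouse 22/16 °C day/night, 16 h light, 65% humidity. Test herbicide typically 60, 90 or 120 g/ha; cloquintocet-mexyl safener 50 g/ha optional at 60, included at 90/120. Scored visually 14 DAA, 0–100% damage, 2 reps averaged.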

Avena fatua (AVEFA) = assay: as above; details: 14 DAA
Outline: as §1

[2] = tested on: Lolium multiflorum (LOLMU); assay: as above; details: 14 DAA
Outline: as §1

Poa annua (POAAN) = assay: as above; details: 14 DAA
Outline: as §1

Setaria viridis (SETVI) = assay: as above; details: 14 DAA
Outline: as §1

[3] = tested on: Spring Barley “Harrington”; assay: Test 1B glasshouse assay, post-emergence herbicidal activity against cereal crops; details: 14 DAA
Outline: (§2)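 Technical compound in IF50 with acetone, diluted into 0.5% v/v Adigor, sprayed post-emergence on 14-day glasshouse plants (22/16 °C, 16 h light, 65% humidity), typically at 60, 90 or 120 g/ha, with or without 50 g/ha cloquintocet-mexyl safener. Phytotoxicity scored visually 14 DAA (0–100%), mean of two replicates.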

Spring Wheat “Teal” = assay: as above; details: 14 DAA
Outline: as §2

Winter Barley “Suzuka” = assay: as above; details: 14 DAA
Outline: as §2

Winter Wheat “Hereward” = assay: as above; details: 14 DAA
Outline: as §2

[4] = tested on: grassy monocotyledonous weeds; assay: Test 1B glasshouse assay, post-emergence, comparison of separated enantiomers, weeds overall; details: chiral-column-separated enantiomers, A98 vs A99 and A100 vs A101, Biological Example 1B
Description: Biological Example 1B tests the herbicidal activity of“technical” compounds (i.e. compounds not previously formulated before the test), as the herbicides under test.
An “instant formulation”, known as the “IF50”, containing 50 g/liter (i.e. 5% w/v) of the “technical” (i.e. unformulated) active ingredient (i.e. the herbicide under test), is prepared by dissolving the active ingredient in a mixture of organic solvents and emulsifier, details of which are provided in the Table below. […]
The test plants are then grown on under controlled conditions in the glasshouse (at 22/16° C., day/night; 16 hours light; 65% humidity) and are watered twice daily. 14 days after application of the test herbicide, the test is evaluated visually for percentage phytotoxicity to the plant (where 100%=total damage to plant; 0%=no damage to plant). […]
Herbicidal activity (phytotoxicity) is evaluated visually, and an assessed percentage phytotoxicity score is given for each herbicidal application on each plant species (with 100%=total damage to plant; 0%=no damage to plant; the assessment is recorded in increments of 1%). […]

[5] = 30 g/ha herbicide, 50 g/ha cloquintocet-mexyl
[6] = 45 g/ha herbicide, 50 g/ha cloquintocet-mexyl
[7] = 60 g/ha herbicide, 0 g/ha cloquintocet-mexyl
[8] = 60 g/ha herbicide, 50 g/ha cloquintocet-mexyl
[9] = 60 g/ha herbicide, 0 g/ha cloquintocet-mexyl, test result no. 1 (T1)
[10] = 60 g/ha herbicide, 50 g/ha cloquintocet-mexyl, test result no. 1 (T1)
[11] = 60 g/ha herbicide, 50 g/ha cloquintocet-mexyl, test result no. 2 (T2)
[12] = 90 g/ha herbicide, 50 g/ha cloquintocet-mexyl, test result no. 2 (T2)
[13] = 120 g/ha herbicide, 50 g/ha cloquintocet-mexyl, test result no. 2 (T2)

With `CCc1cc(-n2cc(Cl)cn2)cc(C)c1C1C(=O)C[C@@H](CCNC(=O)c2ccccn2)C1=O` (some centres unmarked) [Compound A100] the “Post-emergence herbicidal activity, percentage phytotoxicity, ALOMY” value [1, 5] was 55%, the “Post-emergence herbicidal activity, percentage phytotoxicity, ALOMY” value [1, 6] was 75% and the “Post-emergence herbicidal activity, percentage phytotoxicity, ALOMY” value [1, 7] was 83%. For the same compound, the “Post-emergence herbicidal activity, percentage phytotoxicity, ALOMY” value [1, 8] was 78%, the “Post-emergence herbicidal activity, percentage phytotoxicity, AVEFA” value (Avena fatua (AVEFA); [5]) was 100% and the “Post-emergence herbicidal activity, percentage phytotoxicity, AVEFA” value (Avena fatua (AVEFA); [6]) was 100%. For the same compound, the “Post-emergence herbicidal activity, percentage phytotoxicity, AVEFA” value (Avena fatua (AVEFA); [7]) was 100%, the “Post-emergence herbicidal activity, percentage phytotoxicity, AVEFA” value (Avena fatua (AVEFA); [8]) was 100% and the “Post-emergence herbicidal activity, percentage phytotoxicity, LOLMU” value [2, 5] was 100%. The “Post-emergence herbicidal activity, percentage phytotoxicity, LOLMU” value [2, 6] was 100%, the “Post-emergence herbicidal activity, percentage phytotoxicity, LOLMU” value [2, 7] was 100% and the “Post-emergence herbicidal activity, percentage phytotoxicity, LOLMU” value [2, 8] was 100%. The “Post-emergence herbicidal activity, percentage phytotoxicity, POAAN” value (Poa annua (POAAN); [5]) was 73%, the “Post-emergence herbicidal activity, percentage phytotoxicity, POAAN” value (Poa annua (POAAN); [6]) was 78% and the “Post-emergence herbicidal activity, percentage phytotoxicity, POAAN” value (Poa annua (POAAN); [7]) was 80%. For the same compound, the “Post-emergence herbicidal activity, percentage phytotoxicity, POAAN” value (Poa annua (POAAN); [8]) was 78%, the “Post-emergence herbicidal activity, percentage phytotoxicity, SETVI” value (Setaria viridis (SETVI); [5]) was 95% and the “Post-emergence herbicidal activity, percentage phytotoxicity, SETVI” value (Setaria viridis (SETVI); [6]) was 99%. The “Post-emergence herbicidal activity, percentage phytotoxicity, SETVI” value (Setaria viridis (SETVI); [7]) was 99%, the “Post-emergence herbicidal activity, percentage phytotoxicity, SETVI” value (Setaria viridis (SETVI); [8]) was 99% and the “Post-emergence herbicidal activity against cereal crops, percentage phytotoxicity, Spring Barley “Harrington”” value [3, 5] was 13%. The “Post-emergence herbicidal activity against cereal crops, percentage phytotoxicity, Spring Barley “Harrington”” value [3, 6] was 18%, the “Post-emergence herbicidal activity against cereal crops, percentage phytotoxicity, Spring Barley “Harrington”” value [3, 7] was 83% and the “Post-emergence herbicidal activity against cereal crops, percentage phytotoxicity, Spring Barley “Harrington”” value [3, 8] was 28%. The “Post-emergence herbicidal activity against cereal crops, percentage phytotoxicity, Spring Wheat “Teal”” value (Spring Wheat “Teal”; [5]) was 20%, the “Post-emergence herbicidal activity against cereal crops, percentage phytotoxicity, Spring Wheat “Teal”” value (Spring Wheat “Teal”; [6]) was 30% and the “Post-emergence herbicidal activity against cereal crops, percentage phytotoxicity, Spring Wheat “Teal”” value (Spring Wheat “Teal”; [7]) was 65%. The “Post-emergence herbicidal activity against cereal crops, percentage phytotoxicity, Spring Wheat “Teal”” value (Spring Wheat “Teal”; [8]) was 45%, the “Post-emergence herbicidal activity against cereal crops, percentage phytotoxicity, Winter Barley “Suzuka”” value (Winter Barley “Suzuka”; [5]) was 10% and the “Post-emergence herbicidal activity against cereal crops, percentage phytotoxicity, Winter Barley “Suzuka”” value (Winter Barley “Suzuka”; [6]) was 30%. The “Post-emergence herbicidal activity against cereal crops, percentage phytotoxicity, Winter Barley “Suzuka”” value (Winter Barley “Suzuka”; [7]) was 93%, the “Post-emergence herbicidal activity against cereal crops, percentage phytotoxicity, Winter Barley “Suzuka”” value (Winter Barley “Suzuka”; [8]) was 53% and the “Post-emergence herbicidal activity against cereal crops, percentage phytotoxicity, Winter Wheat “Hereward”” value (Winter Wheat “Hereward”; [5]) was 15%. For the same compound, the “Post-emergence herbicidal activity against cereal crops, percentage phytotoxicity, Winter Wheat “Hereward”” value (Winter Wheat “Hereward”; [6]) was 30%, the “Post-emergence herbicidal activity against cereal crops, percentage phytotoxicity, Winter Wheat “Hereward”” value (Winter Wheat “Hereward”; [7]) was 60% and the “Post-emergence herbicidal activity against cereal crops, percentage phytotoxicity, Winter Wheat “Hereward”” value (Winter Wheat “Hereward”; [8]) was 40%. The “herbicidal activity against grassy monocotyledonous weeds compared with the compound of opposite stereochemistry” value [4] was “more potent herbicidal activity”.
In the case of `Cc1cc(-n2cc(Cl)cn2)cc(C)c1C1C(=O)C[C@@H](CCNC(=O)c2ccccn2)C1=O` (stereo partly drawn) [Compound A98, N-[2-[(1R)-3-[4-(4-chloropyrazol-1-yl)-2,6-dimethyl-phenyl]-2,4-dioxo-cyclopentyl]ethyl]pyridine-2-carboxamide], the “Post-emergence herbicidal activity, percentage phytotoxicity, ALOMY” value [1, 9] is reported as 80 (T1) %, the “Post-emergence herbicidal activity, percentage phytotoxicity, ALOMY” value [1, 10] is reported as 80 (T1); % and the “Post-emergence herbicidal activity, percentage phytotoxicity, ALOMY” value [1, 11] is reported as 78 (T2) %. The “Post-emergence herbicidal activity, percentage phytotoxicity, ALOMY” value [1, 12] was 88 (T2) %, the “Post-emergence herbicidal activity, percentage phytotoxicity, ALOMY” value [1, 13] was 97 (T2) % and the “Post-emergence herbicidal activity, percentage phytotoxicity, AVEFA” value (Avena fatua (AVEFA); [9]) was 100 (T1) %. The “Post-emergence herbicidal activity, percentage phytotoxicity, AVEFA” value (Avena fatua (AVEFA); [10]) was 100 (T1); %, the “Post-emergence herbicidal activity, percentage phytotoxicity, AVEFA” value (Avena fatua (AVEFA); [11]) was 100 (T2) % and the “Post-emergence herbicidal activity, percentage phytotoxicity, AVEFA” value (Avena fatua (AVEFA); [12]) was 100 (T2) %. For the same compound, the “Post-emergence herbicidal activity, percentage phytotoxicity, AVEFA” value (Avena fatua (AVEFA); [13]) was 100 (T2) %, the “Post-emergence herbicidal activity, percentage phytotoxicity, LOLMU” value [2, 9] was 95 (T1) % and the “Post-emergence herbicidal activity, percentage phytotoxicity, LOLMU” value [2, 10] was 95 (T1); %. For the same compound, the “Post-emergence herbicidal activity, percentage phytotoxicity, LOLMU” value [2, 11] was 100 (T2) %, the “Post-emergence herbicidal activity, percentage phytotoxicity, LOLMU” value [2, 12] was 100 (T2) % and the “Post-emergence herbicidal activity, percentage phytotoxicity, LOLMU” value [2, 13] was 100 (T2) %. For the same compound, the “Post-emergence herbicidal activity, percentage phytotoxicity, POAAN” value (Poa annua (POAAN); [9]) was 78 (T1) %, the “Post-emergence herbicidal activity, percentage phytotoxicity, POAAN” value (Poa annua (POAAN); [10]) was 75 (T1); % and the “Post-emergence herbicidal activity, percentage phytotoxicity, POAAN” value (Poa annua (POAAN); [11]) was 75 (T2) %. The “Post-emergence herbicidal activity, percentage phytotoxicity, POAAN” value (Poa annua (POAAN); [12]) was 78 (T2) %, the “Post-emergence herbicidal activity, percentage phytotoxicity, POAAN” value (Poa annua (POAAN); [13]) was 83 (T2) % and the “Post-emergence herbicidal activity, percentage phytotoxicity, SETVI” value (Setaria viridis (SETVI); [9]) was 94 (T1) %. For the same compound, the “Post-emergence herbicidal activity, percentage phytotoxicity, SETVI” value (Setaria viridis (SETVI); [10]) was 97 (T1); %, the “Post-emergence herbicidal activity, percentage phytotoxicity, SETVI” value (Setaria viridis (SETVI); [11]) was 100 (T2) % and the “Post-emergence herbicidal activity, percentage phytotoxicity, SETVI” value (Setaria viridis (SETVI); [12]) was 100 (T2) %. For the same compound, the “Post-emergence herbicidal activity, percentage phytotoxicity, SETVI” value (Setaria viridis (SETVI); [13]) was 100 (T2) %, the “Post-emergence herbicidal activity against cereal crops, percentage phytotoxicity, Spring Barley “Harrington”” value [3, 9] was 33 (T1) % and the “Post-emergence herbicidal activity against cereal crops, percentage phytotoxicity, Spring Barley “Harrington”” value [3, 10] was 10 (T1); %. For the same compound, the “Post-emergence herbicidal activity against cereal crops, percentage phytotoxicity, Spring Barley “Harrington”” value [3, 11] was 4 (T2) %, the “Post-emergence herbicidal activity against cereal crops, percentage phytotoxicity, Spring Barley “Harrington”” value [3, 12] was 5 (T2) % and the “Post-emergence herbicidal activity against cereal crops, percentage phytotoxicity, Spring Barley “Harrington”” value [3, 13] was 15 (T2) %. The “Post-emergence herbicidal activity against cereal crops, percentage phytotoxicity, Spring Wheat “Teal”” value (Spring Wheat “Teal”; [9]) was 30 (T1) %, the “Post-emergence herbicidal activity against cereal crops, percentage phytotoxicity, Spring Wheat “Teal”” value (Spring Wheat “Teal”; [10]) was 10 (T1); % and the “Post-emergence herbicidal activity against cereal crops, percentage phytotoxicity, Spring Wheat “Teal”” value (Spring Wheat “Teal”; [11]) was 5 (T2) %. The “Post-emergence herbicidal activity against cereal crops, percentage phytotoxicity, Spring Wheat “Teal”” value (Spring Wheat “Teal”; [12]) was 13 (T2) %, the “Post-emergence herbicidal activity against cereal crops, percentage phytotoxicity, Spring Wheat “Teal”” value (Spring Wheat “Teal”; [13]) was 20 (T2) % and the “Post-emergence herbicidal activity against cereal crops, percentage phytotoxicity, Winter Barley “Suzuka”” value (Winter Barley “Suzuka”; [9]) was 75 (T1) %. For the same compound, the “Post-emergence herbicidal activity against cereal crops, percentage phytotoxicity, Winter Barley “Suzuka”” value (Winter Barley “Suzuka”; [10]) was 13 (T1); %, the “Post-emergence herbicidal activity against cereal crops, percentage phytotoxicity, Winter Barley “Suzuka”” value (Winter Barley “Suzuka”; [11]) was 8 (T2) % and the “Post-emergence herbicidal activity against cereal crops, percentage phytotoxicity, Winter Barley “Suzuka”” value (Winter Barley “Suzuka”; [12]) was 9 (T2) %. The “Post-emergence herbicidal activity against cereal crops, percentage phytotoxicity, Winter Barley “Suzuka”” value (Winter Barley “Suzuka”; [13]) was 40 (T2) %, the “Post-emergence herbicidal activity against cereal crops, percentage phytotoxicity, Winter Wheat “Hereward”” value (Winter Wheat “Hereward”; [9]) was 35 (T1) % and the “Post-emergence herbicidal activity against cereal crops, percentage phytotoxicity, Winter Wheat “Hereward”” value (Winter Wheat “Hereward”; [10]) was 13 (T1); %. The “Post-emergence herbicidal activity against cereal crops, percentage phytotoxicity, Winter Wheat “Hereward”” value (Winter Wheat “Hereward”; [11]) was 9 (T2) %, the “Post-emergence herbicidal activity against cereal crops, percentage phytotoxicity, Winter Wheat “Hereward”” value (Winter Wheat “Hereward”; [12]) was 13 (T2) % and the “Post-emergence herbicidal activity against cereal crops, percentage phytotoxicity, Winter Wheat “Hereward”” value (Winter Wheat “Hereward”; [13]) was 23 (T2) %. For the same compound, the “herbicidal activity against grassy monocotyledonous weeds compared with the compound of opposite stereochemistry” value [4] was “more potent herbicidal activity”.
